Data: article PMC10531095, “Photonics of Some Monomethine Cyanine Dyes in Solutions and in Complexes with Biomolecules” (International Journal of Molecular Sciences, 2023)

Key:
dsDNA [1] = experiment: Spectral fluorescent titration of the dyes with dsDNA in PBS; format: binding, chick; conditions: for Ifl/Ifl0, relative increase in the fluorescence intensity: cdsDNA = 1 × 10^−4 mol L^−1; for φfl^b, fluorescence quantum yield of the dye in the presence of biopolymer: cdsDNA~5 × 10^−5 mol L^−1; for KeffHill, effective complexation constant (Hill) / KeffBH, effective complexation constant (Benesi–Hildebrand): PBS buffer; for KeffBH, effective complexation constant (Benesi–Hildebrand): fluorescent titration; for αb, proportion of bound dye: cbiomol = 5 × 10^−5 mol L^−1; for K2Sc, complexation constant (Scatchard): constant and nSc both varied; for Fmax/F0, fluorescence growth at 100% binding: from the Benesi–Hildebrand dependence; for K1Sc, complexation constant (Scatchard): nSc = const = 10 b.p.
Excerpt: (§1) Complexation of MCD 1–4 with DNA (double-stranded and single-stranded) and with human serum albumin (HSA) was studied by spectral fluorescent methods in a wide range of biopolymer concentrations (cdsDNA = 0–1.5 × 10^−4 mol L^−1; cssDNA = 0–1.4 × 10^−4 mol L^−1; cHSA = 0–1.4 × 10^−4 mol L^−1 in PBS buffer). The absorption, fluorescence, and fluorescence excitation spectra of MCD 1 and 3 in the presence of dsDNA are shown in Figure 3 and Figure 4, respectively.
(§2) The complication of chemical equilibrium, and the variety of interactions between MCD and biopolymer (dye aggregation/deaggregation, the possibility of forming complexes of several types with DNA/HSA) makes it problematic to determine the exact values of the complexation constants of the dyes with DNA. The values of the effective equilibrium constants of the complexation reaction of MCD with biopolymers (Keff, L mol^−1, see Table 7) were estimated from spectral fluorescent data. In this case, we had to assume a simple equilibrium MCD (monomer, free) ⇄ MCD (monomer, bound). For these purposes, we used the Benesi–Hildebrand [59], Hill, and Scatchard formalisms (See Supplementary Materials, Equations (S9)–(S13)). For dsDNA, fitting according to the modified Scatchard equation was carried out assuming one dye molecule per one DNA turn (K1Sc at nSc = const = 10 b.p.), as well as varying both the constant (K2Sc) and the stoichiometric coefficient (nSc). In the case of ssDNA, nSc is given per one base; for HSA, nSc = 1.
(§3) Single-stranded form of DNA (single-stranded DNA; ssDNA) was obtained according to the method described in [74]. The concentrations of DNA and the dyes were controlled spectrophotometrically. Molar extinction coefficient of dsDNA (ε, L⋅mol^−1⋅cm^−1) was taken to be 13,200 L mol^−1 cm^−1 (per base pair); for ssDNA, ε = 9045 L mol^−1 cm^−1 (per one base) was used. For MCD 1 and 2 in an aqueous buffer solution, we used extinction coefficients ε = 40,000 and 68,000 L mol^−1 cm^−1, respectively, which were taken from. For MCD 3 and 4, the molar extinction coefficients in ethanol solution were 69,200 and 49,000 L mol^−1 cm^−1 (taken from). […] Spectral fluorescent characteristics of MCD in complexes with biomacromolecules were studied by titration of dye solutions (see Supplementary Materials). The thermal dissociation (“melting”) of dsDNA in the presence of MCD was studied spectrophotometrically (λabs = 260 nm), the sample was heated (t° = 30–95 °C) using Peltier cells, and the temperature was controlled using a thermocouple. Melting points tm, corresponding to 50% hyperchromia of DNA samples were obtained.
(§4) Absorption spectra were recorded on an SF-2000 spectrophotometer (Experimental-Construction Company “Spectrum”, St. Petersburg, Russia); fluorescence and fluorescence excitation spectra were recorded on a Fluorat-02-Panorama spectrofluorimeter (Group of Companies “Lumex”, St. Petersburg, Russia). The fluorescence and fluorescence excitation spectra were corrected for the spectral characteristics of the instrument (excitation channel signal) and sample transmission. Changes in the intrinsic fluorescence of HSA upon binding of MCD (in the presence of the dyes) were recorded in the synchronous fluorescence scanning (SFS) mode. In SFS mode, when registering spectra, a fixed difference Δλ= λfl − λex is maintained for the channels of excitation and registration. Synchronous scanning spectra were obtained at Δλ = 15 nm (fluorescence of tyrosine residues in the HSA molecule) and Δλ = 60 nm (fluorescence of tryptophan). The spectra were measured in 1 cm quartz semi-micro cells (Bio-Rad, Hercules, CA, USA).
(§5) The equilibrium constants of MCD complexation with biomolecules (Ka, L mol^−1) were obtained from fluorescence spectra using the Benesi–Hildebrand [59], Hill, and Scatchard equations [61] (see Supplementary Materials, Equations (S9)–(S13)). […]

dsDNA [2] = experiment: Flash photolysis: triplet state of MCD in the presence of dsDNA; parameters: species or system chick; conditions: for k1, decay rate constant of the T state (first exponent) / k2, decay rate constant of the T state (second exponent): two-exponential decay
Excerpt: Upon direct flash photoexcitation of deoxygenated solutions of MCD 1–4, signals corresponding to triplet–triplet (T–T) absorption were not observed due to the low efficiency of intersystem crossing to the triplet (T) state, in comparison with competing processes of nonradiative deactivation of excited states of dye molecules, which is common for MCD [41]. Complexation with dsDNA hinders these competing processes, which leads to an increase in the quantum yield of the T state of MCD. In the presence of dsDNA, under direct photoexcitation, the signals of T states of MCD 1–3 were detected, and their different T–T absorption spectra were measured (Figure 10).
Quantum yields of intersystem crossing to the triplet state (ΦST) of MCD 1–3 in the presence of dsDNA were estimated by flash photolysis using optical actinometry (see Materials and Methods). The obtained values of ΦST for MCD 1–3 were 2.6 ± 0.4%, 5.7 ± 0.8%, and 10.7 ± 1.5%, respectively.
The spectral–kinetic characteristics of the T state of MCD were studied by flash photolysis. The experiment was carried out on a setup with excitation by a xenon lamp (lamp flash energy ~50 J, duration τ1/2 = 10 μs). When registering T states, the solutions were deoxygenated using a vacuum setup. The manometric unit was used to determine the air pressure in a series of experiments on T state quenching by dissolved oxygen. The T state of MCD 4 in PBS solution in the presence of dsDNA was obtained by energy transfer from the triplet level of sodium naphthalene-2-sulfonate (ET~21,000 cm^−1 [83]). The quantum yields of T states (ΦT) of the dyes in the presence of dsDNA were estimated actinometrically. Dyes with known ΦT were used as actinometers: the xanthene dye Acid Red 87 (ΦT = 0.8 (aq); [84]) and the cyanine dye 3,3′-diethyl-9-methoxythiacarbocyanine iodide (ΦT = 0.16–0.20 in n-propanol; [85]).

ssDNA = experiment: Spectral fluorescent titration of the dyes with ssDNA in PBS; format: binding, chick; conditions: for φfl^b, fluorescence quantum yield of the dye in the presence of biopolymer: cssDNA~5 × 10^−5 mol L^−1; for LOD: detection of ssDNA; for LOQ: quantification of ssDNA; for K1Sc, complexation constant (Scatchard) / nHill, Hill coefficient / KeffHill, effective complexation constant (Hill) / KeffBH, effective complexation constant (Benesi–Hildebrand) / αb, proportion of bound dye / K2Sc, complexation constant (Scatchard) / Fmax/F0, fluorescence growth at 100% binding / nSc, stoichiometric coefficient (Scatchard): ssDNA; for KeffHill, effective complexation constant (Hill) / KeffBH, effective complexation constant (Benesi–Hildebrand): PBS buffer; for KeffBH, effective complexation constant (Benesi–Hildebrand): fluorescent titration; for αb, proportion of bound dye: cbiomol = 5 × 10^−5 mol L^−1; for K2Sc, complexation constant (Scatchard): constant and nSc both varied; for Fmax/F0, fluorescence growth at 100% binding: from the Benesi–Hildebrand dependence; for nSc, stoichiometric coefficient (Scatchard): per one base; for decrease of the observed extinction coefficients: cssDNA~8 × 10^−5 mol L^−1
Excerpt: as §1, §2, §3, §4, §5

[3] = cdsDNA = 1 × 10^−4 mol L^−1, compared to the initial spectra in PBS

| Structure (SMILES) | Ifl/Ifl0, relative increase in the fluorescence intensity (dsDNA [1]) | φfl^b, fluorescence quantum yield of the dye in the presence of biopolymer (dsDNA [1]) | LOD (dsDNA [1]; detection of dsDNA) | nHill, Hill coefficient (dsDNA [1]; dsDNA) | nSc, stoichiometric coefficient (Scatchard) (dsDNA [1]; dsDNA) | KeffHill, effective complexation constant (Hill) (dsDNA [1]; dsDNA) | KeffBH, effective complexation constant (Benesi–Hildebrand) (dsDNA [1]; dsDNA) | αb, proportion of bound dye (dsDNA [1]; dsDNA) | K2Sc, complexation constant (Scatchard) (dsDNA [1]; dsDNA) | Fmax/F0, fluorescence growth at 100% binding (dsDNA [1]; dsDNA) | K1Sc, complexation constant (Scatchard) (dsDNA [1]; dsDNA) | LOQ (dsDNA [1]; quantification of dsDNA) | φfl^b, fluorescence quantum yield of the dye in the presence of biopolymer (ssDNA) | LOD (ssDNA) | LOQ (ssDNA) | K1Sc, complexation constant (Scatchard) (ssDNA) | nHill, Hill coefficient (ssDNA) | KeffHill, effective complexation constant (Hill) (ssDNA) | KeffBH, effective complexation constant (Benesi–Hildebrand) (ssDNA) | αb, proportion of bound dye (ssDNA) | further results |
| --- | --- | --- | --- | --- | --- | --- | --- | --- | --- | --- | --- | --- | --- | --- | --- | --- | --- | --- | --- | --- | --- |
| CCN1/C(=C/c2sc3ccccc3[n+]2CC)Sc2ccccc21 [MCD 3] | 79 times | 4.8 ± 0.5% | 41 nM | 0.88 | 35 | 6900 L/mol | 13500 L/mol | 40% | 480000 L/mol | 136 | 135000 L/mol | 126 nM | 4.7 ± 0.5% | 87 nM | 260 nM | 112000 L/mol | 0.76 | 2940 L/mol | 11600 L/mol | 37% | hypochromia of the absorption band (dsDNA [1]; [3]): 44%; kqO2, rate constant of triplet state quenching by dissolved oxygen (dsDNA [2]; main (short-lived) component): 3.6e+08 M⁻¹ s⁻¹; k1, decay rate constant of the T state (first exponent) (dsDNA [2]): ~ 1.3 × 10^4 s^−1; k2, decay rate constant of the T state (second exponent) (dsDNA [2]): ~ 4 × 10^3 s^−1; K2Sc, complexation constant (Scatchard) (ssDNA): 430000 L/mol; Fmax/F0, fluorescence growth at 100% binding (ssDNA): 71; nSc, stoichiometric coefficient (Scatchard) (ssDNA): 37 |
| CCN1/C(=C/c2ccc3ccccc3[n+]2CC)C=Cc2ccccc21 [MCD 4] | 115 times | ~1.5 ± 0.2% | 94 nM | 0.62 | 2 | 1850 L/mol | 19500 L/mol | 46% | 37000 L/mol | 169 | 186000 L/mol | 210 nM | ~1.4 ± 0.2% | 760 nM | 2300 nM | 65000 L/mol | 0.57 | 350 L/mol | 6800 L/mol | 25% | hypochromia of the absorption band (dsDNA [1]; [3]): 36%; τT, lifetime of the T state (dsDNA [2]): ~ 0.03 ms; decrease of the observed extinction coefficients (ssDNA): 54%; K2Sc, complexation constant (Scatchard) (ssDNA): 19500 L/mol; Fmax/F0, fluorescence growth at 100% binding (ssDNA): 61; nSc, stoichiometric coefficient (Scatchard) (ssDNA): 3 |
| CC[N+](CC)(CC)CCC[n+]1ccc(/C=C2\Sc3ccccc3N2C)c2ccc(O)cc21 [MCD 1] | about 425 times | 13 ± 1.5% | 7.2 nM | 1.04 | 2 | 53400 L/mol | 54000 L/mol | ~80% | 169000 L/mol | 460 | 793000 L/mol | 21 nM | 12 ± 1.5% | 40 nM | 120 nM | 228000 L/mol | 0.7 | 2830 L/mol | 24200 L/mol | 60% | LOD (dsDNA [1]; dsDNA): about 10^−8 mol L^−1; LOQ (dsDNA [1]; dsDNA): about 10^−8 mol L^−1; αb, proportion of bound dye (dsDNA [1]; dsDNA, listed as 1): 80%; hypochromia of the absorption band (dsDNA [1]; high concentrations of dsDNA): 8%; k1, decay rate constant of the T state (first exponent) (dsDNA [2]): ~ 9.9 × 10^3 s^−1; k2, decay rate constant of the T state (second exponent) (dsDNA [2]): ~2000 s⁻¹; Ifl/Ifl0, relative increase in the fluorescence intensity (ssDNA; cssDNA = 5 × 10^−5 mol L^−1): ~ 40; decrease of the observed extinction coefficients (ssDNA): 40%; K2Sc, complexation constant (Scatchard) (ssDNA): 159000 L/mol; Fmax/F0, fluorescence growth at 100% binding (ssDNA): 60.9; nSc, stoichiometric coefficient (Scatchard) (ssDNA): 2 |
